These results are taken from PMC10489980, “Design of Potent and Salt-Insensitive Antimicrobial Branched Peptides” (Polymers, 2023).

Common to all, as to type: cell-based
Assay [1] concerns ten test organisms (four Gram-negative bacteria, three Gram-positive bacteria, three fungi). The text has this:
Ten organisms obtained from the American Type Culture Collection (ATCC; Rockville, MD) were used for antimicrobial assays. Four Gram-negative bacteria included Escherichia coli ATCC 25922, Pseudomonas aeruginosa ATCC 27853, Klebsiella oxytoca ATCC 49131, and Proteus vulgaris ATCC 49132. The three Gram-positive bacteria were Staphylococcus aureus 29213, Micrococcus luteus ATCC 49,732, and Enterococcus faecalis ATCC 29212. The three fungi were Candida albicans ATCC 37092, Candida kefyr ATCC 37095, and Candida tropicalis ATCC 37097. The clinical isolates were obtained from Singapore General Hospital (SGH). […]
Antimicrobial Assays. […] After additional incubation at 37 °C for 16–24 h, the diameter of the clear zone surrounding the wells (colony-free) was measured under a microscope. Antimicrobial activities were expressed in units (0.1 mm = 1 unit), and the MICs (in µM) were determined from the x-intercepts of the dose-response curves. […]
The minimum inhibitory concentrations (MICs) of four series of branched peptides and two standards, tachyplesin-1 and the dendrimer D4R, against four Gram-negative bacteria, three Gram-positive bacteria, and three fungi were determined using a two-stage radial diffusion assay in both low- (without NaCl) and high-salt (with 100 mM NaCl) conditions. […]

Assay [2] has as its system Candida albicans ATCC 37092. The settings on record: ATCC 37092, 3 h. The procedure, abridged: (§1)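 Two-stage radial diffusion: 1–4 × 10^6 CFU/mL organism in underlay gel (10 mM sodium phosphate, 0.03% TSB, 0.02% Tween-20, plus 100 mM NaCl for high-salt). Peptides in seven half-log dilutions diffused 3 h at 37 °C, then 6% TSB agarose overlay, 16–24 h at 37 °C. MIC (µM) taken from x-intercept of clear-zone dose-response.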

For a further assay, the system named is Candida kefyr ATCC 37095. Conditions: ATCC 37095, 3 h. Summed up: as §1
The subject of assay [3] is Candida tropicalis ATCC 37097. The settings on record: ATCC 37097, 3 h. Summed up:
as §1

Assay [4] relates to Enterococcus faecalis ATCC 29212. Conditions: ATCC 29212, 3 h. The procedure, abridged: as §1
In assay [5] the test system is Escherichia coli ATCC 25922. Conditions: ATCC 25922, 3 h. Summed up: as §1
Assay [6] concerns Klebsiella oxytoca ATCC 49131. Conditions: ATCC 49131, 3 h. The procedure, abridged:
as §1

Assay [7] relates to Micrococcus luteus ATCC 49,732. Conditions: ATCC 49, 3 h. The procedure, abridged: as §1
Assay [8] has as its system Proteus vulgaris ATCC 49132. The settings on record: ATCC 49132, 3 h. The procedure, abridged: as §1
The test system of assay [9] is Pseudomonas aeruginosa ATCC 27853. Conditions: ATCC 27853, 3 h. Summed up:
as §1

In assay [10] the test system is Staphylococcus aureus 29213. Conditions: 29213, 3 h. The procedure, abridged:
as §1

Residues, ends and D or L forms follow the SMILES beside them. Some results are limits rather than exact numbers.

In the case of `CC(C)C[C@H](NC(=O)[C@H](CCCNC(=N)N)NC(=O)[C@H](CCCNC(=N)N)NC(=O)[C@@H](N)Cc1ccc(O)cc1)C(=O)NCCCC[C@H](NC(=O)[C@H](CC(C)C)NC(=O)[C@H](CCCNC(=N)N)NC(=O)[C@H](CCCNC(=N)N)NC(=O)[C@@H](N)Cc1ccc(O)cc1)C(=O)NCCCC[C@H](NC(=O)[C@H](CCCCNC(=O)[C@H](CC(C)C)NC(=O)[C@H](CCCNC(=N)N)NC(=O)[C@H](CCCNC(=N)N)NC(=O)[C@@H](N)Cc1ccc(O)cc1)NC(=O)[C@H](CC(C)C)NC(=O)[C@H](CCCNC(=N)N)NC(=O)[C@H](CCCNC(=N)N)NC(=O)[C@@H](N)Cc1ccc(O)cc1)C(N)=O` [D4Y] (HELM PEPTIDE1{Y.R.R.L.K.K.[am]}|PEPTIDE2{Y.R.R.L}|PEPTIDE3{Y.R.R.L.K}|PEPTIDE4{Y.R.R.L}$PEPTIDE1,PEPTIDE2,5:R3-4:R2|PEPTIDE3,PEPTIDE4,5:R3-4:R2|PEPTIDE1,PEPTIDE3,6:R3-5:R2$$$V2.0; N-terminus and C-terminus assumed), the “MIC in four other organisms, high-salt” value in assay [1] (3 h) was below 10 µM. The “antimicrobial activity under high-salt conditions against six of ten tested organisms” value in assay [1] (radial diffusion assay, 1% agarose, 10 mM phosphate buffer with 100 mM NaCl, result in words) is “inactive”.

`CC(=O)N[C@@H](CCCNC(=O)[C@H](CCCNC(=N)N)NC(=O)[C@H](Cc1ccc(O)cc1)NC(=O)[C@H](CC(C)C)NC(=O)[C@@H](N)CCCNC(=N)N)C(=O)N[C@@H](CCCNC(=O)[C@H](CCCNC(=N)N)NC(=O)[C@H](Cc1ccc(O)cc1)NC(=O)[C@H](CC(C)C)NC(=O)[C@@H](N)CCCNC(=N)N)C(=O)N[C@@H](CCCNC(=O)[C@H](CCCNC(=N)N)NC(=O)[C@H](Cc1ccc(O)cc1)NC(=O)[C@H](CC(C)C)NC(=O)[C@@H](N)CCCNC(=N)N)C(N)=O` [O3R]: in assay [2], the “MIC, C. albicans, H-Salt” value was determined as 18.2 µM and the “MIC, C. albicans, L-Salt” value came to 6.4 µM. Also, in the assay with Candida kefyr ATCC 37095, the “MIC, C. kefyr, H-Salt” value worked out at 1.4 µM and the “MIC, C. kefyr, L-Salt” value is reported as 0.8 µM. For the same compound, in assay [3], the “MIC, C. tropicalis, H-Salt” value was found to be 1.9 µM and the “MIC, C. tropicalis, L-Salt” value is reported as 2.1 µM. Besides, in [4], the “MIC, E. faecalis, H-Salt” value is above 500 µM and the “MIC, E. faecalis, L-Salt” value is 49.8 µM. Further, in [5], the “MIC, E. coli, H-Salt” value worked out at 8.7 µM and the “MIC, E. coli, L-Salt” value is given as 0.9 µM. In addition, in [6], the “MIC, K. oxytoca, H-Salt” value was 1.7 µM and the “MIC, K. oxytoca, L-Salt” value was 1.7 µM. Moreover, in assay [7], the “MIC, M. luteus, H-Salt” value amounted to 16.4 µM and the “MIC, M. luteus, L-Salt” value amounted to 5.4 µM. In addition, in [8], the “MIC, P. vulgaris, H-Salt” value amounted to 24.6 µM and the “MIC, P. vulgaris, L-Salt” value came out at 6.9 µM. Also, in assay [9], the “MIC, P. aeruginosa, H-Salt” value came to 8.9 µM and the “MIC, P. aeruginosa, L-Salt” value was found to be 1.9 µM. Also, in [10], the “MIC, S. aureus, H-Salt” value is reported as 93.4 µM and the “MIC, S. aureus, L-Salt” value is reported as 9.6 µM.
